Measured values from US20150133434A1, “Compositions and Methods for Reactivating Latent Immunodeficiency Virus” (priority 2012, published 2015).
“Also recorded” adds a separate entry of the source.

Key:
[1] = system: latent LTR-Tat-IRES-GFP construct in J-Lat A2 cells; assay: J-Lat A2 cells (LTR-Tat-IRES-GFP), flow cytometry of GFP; format: cell-based, HIV-1; conditions: 18 h
Procedure: (§1) HEK293T and Jurkat cells were obtained from the American Type Culture Collection. J-Lat (clones A2 and A72) cell lines were described. HEK293T cells were cultured in DMEM supplemented with 10% FBS, 1% L-glutamine and 1% penicillin-streptomycin (Life Technologies). Jurkat and J-Lat cells were cultured in RPMI supplemented with 10% FBS, 1% L-glutamine, and 1% penicillin-streptomycin. TNFα (Sigma-Aldrich) was used at concentrations of 0.25 or 1 ng/ml. Human αCD3 and αCD28 (BD Biosciences) were used at concentrations of 3 and 1 μg/ml, respectively. Prostratin (Sigma) was used at a suboptimal concentration of 0.5 μM, and SAHA (NCI Chemical Carcinogen Repository, Midwest Research Institute) was used at 2.5 μM.
(§2) To determine if BET inhibition specifically activates Tat-dependent transcription, a J-Lat cell line was utilized that harbored a latent lentiviral construct expressing Tat with GFP from the HIV LTR (clone A2; LTR-Tat-IRES-GFP). […] Stimulation with JQ1 yielded up to ninefold more GFP-expressing cells than control-treated cells, and a 22-fold increase was observed when cells were co-treated with JQ1 and low doses of TNFα (FIG. 21A). […] Here, an up to 22-fold increase in GFP^+ cells resulted from JQ1 treatment alone and a 45-fold increase when TNFα was added with JQ1 (FIG. 21B). Both cell lines were also treated with prostratin and SAHA (FIG. 27).
(§3) Two latent J-Lat cell lines A2 (containing a LTR-Tat-IRES-GFP construct) or A72 (containing a LTR-GFP construct) were treated with JQ1 or (R)-JQ1 in combination with TNFα or control at the indicated concentrations for 18 h, followed by flow cytometry analysis. […] Data represent average (±SD) of three independent experiments. All treatments in (A) and (B) on the X axis are in μM.

[2] = system: latent HIV (clone R7/E-/GFP) in Jurkat T cells; assay: Reactivation of latent HIV in polyclonal Jurkat T cells (clone R7/E-/GFP), flow cytometry of GFP; format: cell-based, HIV-1; conditions: compound alone, increasing amounts
Procedure: A polyclonal population of Jurkat T cells containing latent HIV (clone R7/E-/GFP) was treated with increasing amounts of JQ1. This viral clone contains a frameshift mutation in the viral Env gene to prevent viral spread and expresses GFP in the Nef open reading frame, which allows separation of actively infected GFP^+ from GFP^− cells by cell sorting. GFP^− cells, which are mostly uninfected but contain a small fraction of latently infected cells with silenced HIV transcription, were treated with JQ1. Activation of transcription was measured by flow cytometry of GFP. […] Stimulation of cells with JQ1 produced up to fivefold more GFP-expressing cells than control-treated cells.
HIV clones R7/E-/GFP and NL4-3/E-/GFP-IRES-nef were derived from pR7-GFP and pNLENG1-EGFP by mutating the Env gene by inserting an early stop codon in the NdeI site. […]. Jurkat cells were spininfected with 25 ng of p24 per 10^6 cells, and GFP^− cells where collected in two rounds of cell sorting 5 and 15 days after infection. The expanded population of GFP^− cells, composed of uninfected and latently infected cells, was seeded in 96-well plates and treated with the indicated concentration of drugs in duplicates. The percentage of GFP^+ cells was detected after 24 h at the MACSQuant VYB FACS analyzer. Data are expressed as the mean percentage of GFP^+ cells, subtracting the average percentage of spontaneous GFP-reactivation in the untreated samples. (A) Jurkat cells containing latent R7/E-/GFP virus were treated with JQ1 or (R)-JQ1 in combination with Prostratin (0.5 μM), SAHA (2.5 μM), TNFα (1 ng/μl), or control at the indicated concentrations for 18 h, followed by flow cytometry analysis. […] Results represent average of two independent experiments. All treatments in (A) and (B) on the X axis are in μM.

[3] = system: latent LTR-GFP construct in J-Lat A72 cells; assay: J-Lat A72 cells (LTR-GFP lacking Tat), flow cytometry of GFP; format: cell-based, HIV-1; conditions: 18 h
Procedure: as §1, §2, §3

[4] = system: HIV LTR-luciferase reporter (Tat transactivation); assay: Tat transactivation of the HIV promoter, LTR-luciferase in Jurkat 1G5-Tat cells; format: cell-based; conditions: 1G5-Tat clonal cell lines
Procedure: Compounds that specifically bind to the bromodomain of PCAF in vitro were tested in an in vivo assay that measures the transactivation of the HIV promoter by Tat. The Jurkat 1G5 cells contain a stably integrated and silent HIV LTR-luciferase reporter construct. These cells were infected with an HIV-based retroviral vector expressing a 101-amino acids Tat (Tat2ex), generating the 1G5-Tat cells. Introduction of Tat protein activates HIV transcription and produces a stable increase in luciferase activity. Clonal cell lines were derived from the original population and have characterized them in terms of luciferase expression and response to Tat inhibitors. Luciferase expression is stable over time in each clone and is inhibited by more than 80% in response to DRB, a known inhibitor of CDK9 kinase activity and Tat transactivation.
Compounds were tested by incubating them at various concentrations ranging from 1.25 to 40 μM on either 1G5 cells, to test for effects on the HIV LTR, or on 1G5-Tat cells to test for effects on Tat-induced HIV transcription. After 24 hr, cells were harvested and processed for luciferase activity measurement.

[5] = system: latent HIV-1 in Bcl-2-transduced resting CD4+ T cells; format: cell-based; conditions: 24-72 h, average of two donors
[6] = system: latent DHIV-GFP, X4 virus in nonpolarized T helper cells; assay: Primary T-cell model of latency, ex vivo differentiated nonpolarized CD4+ T cells; format: cell-based, HIV-1; conditions: 96 h after compound addition; minor effect only at highest doses

Structure (SMILES)	activation of HIV transcription (GFP) [1]	reactivation of HIV-1 (GFP+ cells) [2]	activation of HIV transcription (GFP) [3]	inhibition of luciferase expression [4]	activation of HIV transcription (GFP) ([1]; listed as I-BET151)	reactivation of latent HIV-1 relative to costimulation with αCD3 and αCD28 antibodies [5]	activation of HIV transcription (GFP) ([3]; listed as I-BET151)	reversal of latency (GFP) [6]
Cc1sc2c(c1C)C(c1ccc(Cl)cc1)=N[C@H](CC(=O)OC(C)(C)C)c1nnc(C)n1-2 [(R)-JQ1]	inactive and not and did not activate the integrated HIV promoter	not	did not activate the integrated HIV promoter					
OC[C@H]1O[C@@H](n2cnc3cc(Cl)c(Cl)cc32)[C@H](O)[C@@H]1O [DRB]				more than 80%				
COc1cc2c(cc1-c1c(C)noc1C)ncc1[nH]c(=O)n([C@H](C)c3ccccn3)c12 [I-Bet151, 7-(3,5-dimethylisoxazol-4-yl)-8-methoxy-1-((R)-1-(pyridin-2-yl)ethyl)-1H-imidazo[4,5-c]quinolin-2(3H)-one]	effectively activated HIV from latency		effectively activated HIV from latency		increased GFP expression	same activation	increased GFP expression	
COC(=O)C[C@@H]1N=C(c2ccc(Cl)cc2)c2c(sc(C)c2C)-n2c(C)nnc21 [MS417, Methyl 2-((6S)-4-(4-chlorophenyl)-2,3,9-trimethyl-6H-thieno[3,2-f][1,2,4]triazolo[4,3-a][1,4]diazepin-6-yl)acetate]	effectively activated HIV from latency; also recorded: increased GFP expression		effectively activated HIV from latency; also recorded: increased GFP expression			same activation		minor activatory effect
O=C(CCCCCCC(=O)Nc1ccccc1)NO [SAHA, suberoylanilidehydroxamic acid]								resistant to reactivation
